Tests used:
Swiss Webster mice = assay: Locomotor activity (spontaneous movements), Swiss Webster mice; format: in vivo
Experimental: The activity of AIT-082 was compared with tacrine (THA) and physostigmine (PHY), experimental anticholinesterase agents which enhance memory in animals. The drugs were also evaluated for their effects on locomotor activity. In the win-shift memory paradigm, AIT-082 was evaluated for its ability to induce tolerance after 18 days of drug administration. In addition AIT-082 was tested for its activity to modify learning in a modified T-maze discrimination task.
The drugs used in this example are 4-((3-(1,6-dihydro-6-oxo-9-purin-9-yl)-1-oxopropyl)amino) benzoic acid (AIT-082), as an exemplary potassium salt, tacrine hydrochloride (tetrahydroaminoacridine, THA, Sigma Chemical Co., St. Louis, Mo.), and physostigmine, hemisulfate salt (PHY, Sigma Chemical Co., St. Louis, Mo.). The drugs were dissolved in saline and prepared fresh daily. All injections were made at a volume of 0.1 ml/10 grams body weight. When testing drug effects, intraperitoneal (i.p.) injections of AIT-082 or THA were made one hour prior to the start of testing. Due to its shorter duration of action, PHY was injected 30 minutes prior to testing. Control subjects receive a similar injection of saline (vehicle).

[1] = tested on: cultured rat hippocampal neurons; assay: NMDA-induced toxicity in cultured rat hippocampal neurons, astrocyte conditioned medium
Experimental: To determine whether or not AIT-082 afforded in vitro neuroprotection, the effect of AIT-082 on toxicity induced by N-methyl-D-aspartate (NMDA) in cultured rat hippocampal neurons was studied.
To determine whether AIT-082 protected against neuronal toxicity induced by NMDA, and whether astrocytes might be involved, cultured astrocytes were exposed to AIT-082 for 6 hr. The drug was then removed and cultures were kept in fresh medium for the following 20 hr. This conditioned medium was then added to primary cultures of rat hippocampal neurons on the seventh day in vitro, immediately after they had been exposed to a toxic pulse of NMDA.
It was next evaluated whether the addition of conditioned medium (CM) deriving from astrocyte cultures treated with 100 μM AIT-082 generated protection against damage induced by a toxic pulse with 100 μM NMDA in cultured neurons.
The effects of NMDA are shown in FIG. 66A on cortical cells and in FIG. 66B for hippocampal cells.

mice = settings: oral or intraperitoneal route, preliminary
CNTF = assay: Summary of effects on growth factor mRNA and protein (Table R): CNTF; parameters: key: ± = mRNA; + = protein; nt = not tested
From the text: (§1) The constellation of effects of AIT-082 on production of mRNA encoding growth factors and on production of growth factor proteins is shown in Table R. The results summarized in […] show both transcriptional and translational effects on growth factors that are in the categories of neurotrophins, pleiotrophins, members of the S100 family of EF hand calcium binding proteins, and members of the TGFβ superfamily. As indicated, effects have been shown at both the mRNA (transcriptional) and protein (translational) levels.

GDNF = assay: Two-site ELISA of growth factor protein in rat brain and spinal cord: GDNF; format: in vivo, F344 rats
Experimental: Adult female F344 rats were given either AIT-082 (doses: 30 mg/kg/day or a higher dose of 30 mg/ml (˜3,000 mg/kg/day); n=6 rats per group) in their drinking water, or water alone, as a vehicle for control. The duration of the study was seven days, at which time the rats were anesthesized and perfused with ice-cold saline. The brains of the rats were rapidly removed. The brains were placed on a chilled glass plate and dissected into the following regions: basal forebrain, frontal cortex, parietal cortex, cerebellum, spinal cord, and hippocampal formation. Tissues were stored at −70° C. until assayed in a specific two-site ELISA for either NGF, BDNF, NT-3, or GNDF.
The results are shown in FIGS. 45 (BDNF), 46 (NT-3), 47 (GDNF) and 48 (NGF). For the results shown in FIGS. 45-48, animals were given only water (VEH, n=6) or water with AIT-082 at either 30 mg/kg/day (n=6) or 30 mg/ml (n=6) for seven days. The levels of each growth factor were determined in the frontal cortex (F. Cor.), parietal cortex (P.Cor.), hippocampal formation (Hipp.), basal forebrain (B.F.), cerebellum (Cer.), or spinal cord (Cord) using a specific two-site ELISA for each growth factor.
Adult female rats were given AIT-082 (30 mg/kg/day) in their drinking water or drinking water alone (n=6 for each group) for seven days prior to receiving a bilateral fimbria fornix transection (FFT).
The results are shown in FIGS. 49 (BDNF), 50 (NT-3), 51 (GDNF) and 52 (NGF). […] Levels of the growth factor were determined in frontal cortex (F.Cor.), parietal cortex (P.Cor.), hippocampal formation (Hipp.), basal forebrain (B.F.), cerebellum (Cer.), or spinal cord (Cord) using a specific two-site ELISA for each growth factor. […]
Results are shown in FIGS. 53 (BDNF), 54 (NT3), 55 (GDNF), and 56 (NGF). […] Levels of each growth factor were determined in frontal cortex (F.Cor.), parietal cortex (P. Cor.), hippocampal formation (Hipp.), basal forebrain (B.F.), cerebellum (Cer.) or spinal cord (Cord) using a specific two-site ELISA.

TGFβ1 = assay: Summary of effects on growth factor mRNA and protein (Table R): TGFβ1; parameters: key: ± = mRNA; + = protein; nt = not tested; settings: Cultured Cells
From the text: as §1

NT-3 mRNA = assay: RT-PCR of growth factor mRNA after T8 spinal cord hemisection: NT-3; format: in vivo, Wistar rats

Compound: O=C(CCn1cnc2c(=O)[nH]cnc21)Nc1ccc(C(=O)O)cc1 [AIT-082, N-4-carboxyphenyl-3-(6-oxohydropurin-9-yl)propanamide]
- Locomotor Activity (Swiss Webster mice; AIT-082 0.5 mg/kg): 323 Spontaneous movements per hour
- Locomotor Activity (Swiss Webster mice; AIT-082 30.0 mg/kg): 378 Spontaneous movements per hour
- reduction of cell damage ([1]; combination of 100 μM AIT-082 and CM, hippocampal cells, 100 μM NMDA): 70-80%
- reduction of the number of dead neurons and the production of LDH caused by NMDA ([1]; conditioned medium from astrocytes treated with AIT-082 (50-100 μM) for 6 hr): 50%
- LD50 (mice): > 3000 mg/kg
- CNTF, effect on mRNA/protein production (CNTF; Lesioned Spinal Cord): ±
- CNTF, effect on mRNA/protein production (CNTF; Normal Spinal Cord): ±
- GDNF protein levels (GDNF; FFT-lesioned rats, 30 mg/kg/day, basal forebrain): increased GDNF levels
- GDNF protein levels (GDNF; aged rats, 30 mg/kg/day 30 days, parietal and frontal cortex): restored GDNF protein levels to those of young animals
- GDNF protein levels (GDNF; intact adult rats, 3000 mg/kg/day, basal forebrain and spinal cord): increased GDNF levels
- TGFβ1, effect on mRNA/protein production (TGFβ1): +
- NT-3 mRNA level (NT-3 mRNA; at the level of the lesion): no significant differences
- NT-3 mRNA level (NT-3 mRNA; caudal to lesion, 7 days): no significant effects
- NT-3 mRNA level (NT-3 mRNA; caudal to lesion, control animals, 3 days): decreased
